{
  "source": "patent US20200263213A1",
  "about": "“METHODS FOR INCREASING THE TOLERANCE OF MICROBIAL CELLS TOWARDS ANTHRANILIC ACID BY LIMITING THE AMOUNT OF AMMONIA IN THE CULTURE MEDIUM” (priority 2017, published 2020)",
  "key": {"[1]": {"system": "C. glutomicum strain derived from ATCC 13032 by evolutionary engineering", "assay": "Metabolic activity after NH4-oAB and Na-oAB addition, batch cultivation in 1 L bioreactors (Example 2)", "format": "cell-based, Corynebacterium glutomicum", "details": "40 mL of 500 g/L oAB stock solution added at 7 h and 24 h; FIG. 2", "procedure": "Both bioreactors: addition of 36 g/L glucose (added as stock solution) after 7.5 h and 24.5 h to prevent a glucose limitation.\nA C. glutomicum strain derived from ATCC 13032 was used to compare the metabolic activity after NH4-oAB and Na-oAB addition during the cultivation. This strain was derived from Corynebacterium glutomicum ATCC 13032 by evolutionary engineering in order to increase its resistance against oAB. It was not further genetically modified. Thus it was not capable of oAB-production."}, "C. glutomicum ATCC 13032": {"system": "C. glutomicum ATCC 13032", "assay": "Metabolic activity after NH4-oAB and Na-oAB addition, batch cultivation in 1 L bioreactors (Example 3, FIG. 3)", "format": "cell-based", "details": "for biomass accumulation after addition: 40 mL of 500 g/L oAB stock solution added after 6.4 h and 23.6 h, FIG. 3", "text": "From this it follows that the toxicity of oAB on C. glutomicum ATCC 13032 in presence of high sodium concentrations is reduced as compared to the toxicity in presence of high ammonium concentrations."}, "[2]": {"system": "modified C. glutamicum production strain", "details": "for decrease of OTR signal after addition: 292 mmol salt (70 mL stock solution) added after 64 h, Na-oAB added before (4 x 20 mL of 500 g/L); for final dry weight concentration: after a cultivation time of 91 hours, salt added after 64 h in the presence of oAB"}, "[3]": {"system": "modified C. glutaomicum production strain", "assay": "Evaluation of the maximum tolerable oAB concentration, batch cultivation in 1 L bioreactor (Example 1)", "format": "cell-based, Corynebacterium glutaomicum", "procedure": "FIG. 1: Evaluation of the maximum tolerable oAB concentration during batch cultivation in a 1 L lab-scale bioreactor with a modified C. glutaomicum production strain.\nThe maximum tolerable oAB concentration in the presence of sodium ions in the medium was tested with a modified C. glutaomicum production strain. This strain was derived from Corynebacterium glutaomicum ATCC 13032 by evolutionary engineering in order to increase its resistance against oAB. This strain was then genetically modified to make it capable of oAB-production and comprised the following modifications. The incorporated modifications have the effect of reduced expression of the trpD gene, encoding anthranilate phosphoribosyl transferase, knock out of gene ppc, encoding PEP Carboxylase, constitutive overexpression of heterologous aroG^D146N and trpEG^540F genes from E. coli, encoding feedback resistant DAHP synthase and anthranilate synthase, respectively, constitutive overexpression of the gene aroL from E. coli, encoding shikimate kinase.\nGlucose was added as stock solution after 40 h, 48 h, 63 h, 65 and 71.5 h to prevent a glucose limitation."}},
  "data": [
    {"smiles": "N.Nc1ccccc1C(=O)O", "note": "[NH4-oAB]", "values": [
      {"measurement": "OTR signal after addition", "setting": "[1]", "value": "constant OTR signal"},
      {"measurement": "biomass concentration after addition", "setting": "[1]", "value": "reduced biomass accumulation"},
      {"measurement": "biomass accumulation after addition", "setting": "C. glutomicum ATCC 13032", "value": "growth inhibition after 24 h"},
      {"measurement": "o-aminobenzoate concentration at which cell growth (dry weight) stops", "setting": "C. glutomicum ATCC 13032; according to FIG. 3", "value": "> 50", "unit": "g/L"},
      {"measurement": "o-aminobenzoate concentration at which the metabolic activity of bacterial cells (OTR) is limited", "setting": "C. glutomicum ATCC 13032; according to FIG. 3, concentration not including the mass of the cation", "value": "more than 25 g/L"}
    ]},
    {"smiles": "Cl.N", "note": "[NH4Cl]", "values": [
      {"measurement": "decrease of OTR signal after addition", "setting": "[2]", "value": "about 20%"},
      {"measurement": "final dry weight concentration", "setting": "[2]", "value": 6.8, "unit": "g/L"}
    ]},
    {"smiles": "Nc1ccccc1C(=O)[O-].[Na+]", "note": "[Na-oAB]", "values": [
      {"measurement": "OTR signal after addition", "setting": "[1]", "value": "continued to increase"},
      {"measurement": "biomass concentration after addition", "setting": "[1]", "value": "continued to increase"},
      {"measurement": "biomass accumulation after addition", "setting": "C. glutomicum ATCC 13032", "value": "biomass accumulation continued"}
    ]},
    {"smiles": "[Cl-].[Na+]", "note": "[NaCl]", "values": [
      {"measurement": "decrease of OTR signal after addition", "setting": "[2]", "value": "no effect"},
      {"measurement": "final dry weight concentration", "setting": "[2]", "value": 7.8, "unit": "g/L"}
    ]},
    {"smiles": "Nc1ccccc1C(=O)O", "note": "[oAB, 2-aminobenzoic acid]", "values": [
      {"measurement": "oAB concentration at which an increase in biomass concentration was still observed", "setting": "[3]; oAB added stepwise as sodium salt (dissolved with NaOH at pH 7), pH 7 controlled with NH4OH, 30° C.", "value": 80, "unit": "g/L"},
      {"measurement": "oAB concentration resulting in a decrease of the metabolic activity (declining OTR signal) and no further increase in biomass", "setting": "[3]; oAB increased from 80 g/L after 71 h, added as sodium salt (dissolved with NaOH at pH 7)", "value": 100, "unit": "g/L"}
    ]}
  ]
}
